Measurements as given in ChEMBL document CHEMBL4033673, “Conformational control in structure-based drug design” (Bioorg Med Chem Lett, 2017).
Values belong to the compound of their own block, whether it stands above or below them.

Legend:
[1] = biological target: T1, Mineralocorticoid receptor (Homo sapiens, UniProt P08235); experiment: Antagonist activity at mineralocorticoid receptor (unknown origin)
T1 sequence (P08235 whole entry): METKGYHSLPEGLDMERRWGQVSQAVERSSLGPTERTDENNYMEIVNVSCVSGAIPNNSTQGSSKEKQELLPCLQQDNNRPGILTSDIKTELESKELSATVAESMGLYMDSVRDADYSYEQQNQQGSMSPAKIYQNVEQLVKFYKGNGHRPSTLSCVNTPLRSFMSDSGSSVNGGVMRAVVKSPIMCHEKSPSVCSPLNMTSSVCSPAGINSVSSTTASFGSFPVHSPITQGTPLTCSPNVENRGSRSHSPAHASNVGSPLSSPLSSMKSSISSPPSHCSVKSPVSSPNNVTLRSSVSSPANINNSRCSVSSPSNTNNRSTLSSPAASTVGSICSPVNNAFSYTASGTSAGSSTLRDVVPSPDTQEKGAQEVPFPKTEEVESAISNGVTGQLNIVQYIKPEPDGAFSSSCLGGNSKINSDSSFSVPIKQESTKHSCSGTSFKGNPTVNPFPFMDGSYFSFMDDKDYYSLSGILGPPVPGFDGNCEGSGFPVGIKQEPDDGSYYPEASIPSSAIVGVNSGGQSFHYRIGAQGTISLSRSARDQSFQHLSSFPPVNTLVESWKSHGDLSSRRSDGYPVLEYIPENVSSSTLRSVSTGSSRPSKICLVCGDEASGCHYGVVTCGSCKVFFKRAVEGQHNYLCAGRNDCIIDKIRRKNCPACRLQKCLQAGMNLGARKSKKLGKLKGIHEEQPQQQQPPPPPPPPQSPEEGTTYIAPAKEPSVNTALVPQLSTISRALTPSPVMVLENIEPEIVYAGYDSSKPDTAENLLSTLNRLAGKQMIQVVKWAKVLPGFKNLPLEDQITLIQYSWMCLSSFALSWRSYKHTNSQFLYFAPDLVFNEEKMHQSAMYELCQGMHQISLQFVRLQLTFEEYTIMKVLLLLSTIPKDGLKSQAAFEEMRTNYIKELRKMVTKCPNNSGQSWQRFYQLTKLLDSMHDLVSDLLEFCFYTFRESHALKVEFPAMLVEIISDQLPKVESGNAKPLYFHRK

[2] = Displacement of (2S)-N-(2-phenylphenyl)-1-[2-[1-(tritritiomethyl)benzimidazol-2-yl]sulfanylacetyl]pyrrolidine-2-carboxamide from human OX1 receptor Ile408-Val mutant expressed on CHO cell membrane measured after 3 hrs by TopCount method
[3] = biological target: T2, Orexin receptor type 2 (Homo sapiens, UniProt O43614); experiment: Displacement of (2S)-N-(2-pyrrol-1-ylphenyl)-1-[2-[1-(tritritiomethyl)benzimidazol-2-yl]sulfanylacetyl]pyrrolidine-2-carboxamide from recombinant human OX2 receptor expressed in CHO cell membranes after 3 hrs by Topcount method
T2 sequence (O43614 whole entry): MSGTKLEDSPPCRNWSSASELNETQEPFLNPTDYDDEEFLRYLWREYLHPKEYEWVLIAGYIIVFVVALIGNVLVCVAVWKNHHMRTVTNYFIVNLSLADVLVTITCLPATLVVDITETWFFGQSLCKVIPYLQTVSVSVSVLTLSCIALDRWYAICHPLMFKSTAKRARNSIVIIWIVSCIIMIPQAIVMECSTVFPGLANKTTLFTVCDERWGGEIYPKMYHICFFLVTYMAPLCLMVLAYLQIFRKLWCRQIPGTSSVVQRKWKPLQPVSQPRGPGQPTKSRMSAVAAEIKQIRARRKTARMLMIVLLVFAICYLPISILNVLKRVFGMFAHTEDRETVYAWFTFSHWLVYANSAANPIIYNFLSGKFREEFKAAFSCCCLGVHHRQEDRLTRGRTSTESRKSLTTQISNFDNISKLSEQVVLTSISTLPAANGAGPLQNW

Ki [1]: 196 nM
SMILES: O=C1COc2ccc(N3CCc4ccc(F)cc4CC3)cc2N1

SMILES: Cc1ccc(-n2nccn2)c(C(=O)N2CCCC(COc3ccc(F)cn3)C2)c1 (stereo not drawn)
Ki [2]: 96 nM

Ki [3]: 0.2 nM
SMILES: Cc1ccc(-n2nccn2)c(C(=O)N2CCC[C@@H](COc3ccc(F)cn3)[C@@H]2C)c1 (relative stereo)
